Test results taken from patent US12029682B2, “Spray ejector mechanisms and devices providing charge isolation and controllable droplet charge, and low dosage volume ophthalmic administration” (EYENOVIA, INC., priority 2012, dated 2024).
Entries after “also recorded” stand apart in the source; their conditions may differ.

Key:
Format in all cases: in vivo, beagle dog
glaucomatous beagles [1] = assay: Pupil diameter (PD), Jameson Caliper, in glaucomatous beagles
glaucomatous beagles [2] = assay: Intraocular pressure (IOP), TonoVet, in glaucomatous beagles; settings: for IOP decrease: 6.0 μl at 0.025% via spray ejector device and 0.005% eyedropper had similar results
glaucomatous beagles [3] = assay: Ocular irritation observations in glaucomatous beagles
Protocol: Active drug delivery begins on study day eight. For five days, IOP and PD measurements are taken at 0900. Immediately after 0900 measurements (time 0), each animal receives 6 μl of generic latanoprost in its assigned eye with the ejector device, followed by a second dosing 3 minutes later of an additional 6 μl (to avoid overloading the conjunctival sac). The contralateral eye receives a clinical dose (one drop) of the same commercially-available topical drug from FDA approved container (positive control). The ejector device is checked for accuracy before and after every use (Table 1). Standard measurements continue throughout each day (at 0:30, 0:45, 1, 2, 7 hrs). Possible endpoints include, but are not limited to, excessive ocular irritation, ocular damage, or other illness and injury. […]
(§1) On study days 5-9, IOP and PD measurements were taken at approximately 0900 h (time 0). Immediately after these measurements, each animal received 6 μl of 0.03% bimatoprost in its assigned eye via the spray ejector device. The contralateral eye received a clinical dose (one drop) of the same commercially available topical drug from a traditional eyedropper (positive control). The spray ejector device was checked for accuracy before and after every use and required a 10% delivered dose accuracy in pretreatment. Standard measurements continued throughout each day at 0, 1, 2, 4, and 7 hours. Possible endpoints included, but were not limited to, excessive ocular irritation, ocular damage, and other illness or injury. No statistical crossover was utilized for this study.
Ophthalmic examinations (slit lamp with fluorescein and indirect ophthalmoscopy) were performed on the eyes of each animal prior to Study Day 1. Ocular findings were scored according to the McDonald-Shadduck Score System. Ocular findings were recorded using a standardized data collection sheet. Macroscopic observations were recorded in accordance with the Draize Scale for Scoring Ocular Lesions. Animals were assigned treatments based on basic randomization prior to study day one.
Following a 7 day rest period, the eye choice was reversed. Measurements of IOP, heart rate and pupil diameter (PD) were made at 0:15, 0:30, 0:45, 1, 2, 4, 7, and 18 hours in the primary and crossover study. A veterinary ophthalmologist evaluated each test subject before and after the study for evidence of ocular side effects.
Ophthalmic examinations (slit lamp with fluorescein and indirect ophthalmoscopy) were performed on the eyes of each animal prior to study day 1. Ocular findings were scored according to the McDonald-Shadduck score system and macroscopic observations were recorded in accordance with the Draize scale for scoring ocular lesions. Ocular findings were recorded using a standardized data collection sheet.

glaucomatous beagles [4] = assay: Intraocular pressure (IOP), TonoVet, in glaucomatous beagles
Protocol: (§2) One glaucomatous beagle dog (female, aged 3 years) from the University of Florida MacKay Colony of Glaucomatous Beagles was chosen for this study. The animal was rested a minimum of one week before starting the study. Prior to the commencement of the study, the animal was assigned one eye to receive 1.5 μl of 0.005% latanoprost and the contralateral eye to remain untreated as a control. The basic measurement protocol was followed at all times and performed by the same operator. PD was measured via Jameson Caliper (mm horizontally). IOP was measured using a TonoVet instrument with clean probe (iCare). IOP and PD were measured at time 0, 1, 2, 4, 7 and 18 hours daily for two days. Immediately after the time 0 measurement, the animal received 1.5 μl of 0.005% latanoprost in its assigned eye with a spray device. The contralateral eye was left untreated. The spray device was checked for accuracy before and after every use, and required a 10% delivered dose accuracy in pretreatment. Standard measurements continued throughout each day at time 1, 2, 4, 7 and 18 hours. Possible endpoints included, but were not limited to, excessive ocular irritation, ocular damage, and other illness or injury. No statistical crossover was utilized for this study.
as §2, with “study.” for “study. The animal was rested a minimum of one week before starting the study.”, “receive 3.0” for “receive 1.5”, “0 measurements,” for “0 measurement,”, “animal was administered 3.0” for “animal received 1.5”, “eye using” for “eye with”, “spray ejector” for “spray”
All animals were rested for a minimum of one week before starting the trials. IOP and pupil diameter (PD) were measured 5 times (at 0, 1, 2, 4, and 7 hours) daily for four days (study days 1-4) to establish initial baseline levels. The basic measurement protocol was followed at all times and performed by the same operator. PD was measured via Jameson Caliper (mm horizontally). IOP was measured with a TonoVet instrument with clean probe (iCare). After three rest days, one eye was randomly assigned to receive 9 μl of 0.005% latanoprost delivered via a spray ejector device, and the contralateral eye was administered traditional latanoprost from a traditional eyedropper container (26-30 μl).
as §1, with “time 0” for “these”, “a once-daily dose of 9” for “6”, “generic 0.005% latanoprost” for “0.03% bimatoprost”, “study. […]” for “study.”

[5] = 12 μl of 0.005% BID via spray ejector device
[6] = 1.5 μl of 0.005% once daily, spray ejector device, one dog, by hour 2
[7] = 3.0 μl of 0.005% once daily, spray ejector device, one dog, by hour 2

## CC(C)OC(=O)CCC/C=C\C[C@@H]1[C@@H](CC[C@@H](O)CCc2ccccc2)[C@H](O)C[C@@H]1O [latanoprost]
Glaucomatous beagles [1]; [5]
  duration of PD constriction vs eyedropper: remained constricted much longer
Glaucomatous beagles [1]; any point in the study (p=0.943)
  PD: spray ejector device 6.0 μl at 0.025% vs 0.005% eyedropper: no significant differences
Glaucomatous beagles [1]; both treatments (spray ejector device BID, eyedropper), by time 1 hour on most days
  minimum PD: pinpoint
Glaucomatous beagles [1]; by time 1 hour each day, 6.0 μl at 0.025% spray ejector device and 0.005% eyedropper
  PD: 0 mm
Glaucomatous beagles [2]; 0.005%, one drop (26-30 μl) by eyedropper
  duration of action vs spray ejector device: greater
Glaucomatous beagles [2]; [6]
  maximum decrease in IOP from the initial value: 16 mmHg
Glaucomatous beagles [2]; [7]
  IOP in the treated eye: 19 mmHg
Glaucomatous beagles [2]; 3.0 μl of 0.005% via spray ejector device
  effectiveness at lowering IOP and constricting the pupil vs traditional eyedropper therapy: as effective at lowering IOP and constricting the pupil as traditional eyedropper therapy
Glaucomatous beagles [2]; 9 μl of 0.005% once daily via spray ejector device
  IOP values vs baseline: significantly lower than baseline
Glaucomatous beagles [2]; [5]
  average daily change / average fluctuation in IOP (maximum minus minimum): 7.6 mmHg
  average fluctuation in IOP: 30%
  morning IOP spike compared to eyedropper delivery: consistently prevented the anticipated morning IOP spike
Glaucomatous beagles [2]; 12 μl of 0.005% BID via spray ejector device, day 8
  maximum IOP: 17.2±3.0 mmHg
Glaucomatous beagles [2]; 12 μl of 0.005% BID via spray ejector device, day 8, hour 7
  minimum IOP: 13.6±1.2 mmHg
Glaucomatous beagles [2]; 12 μl of 0.005% BID via spray ejector device, day 9
  maximum IOP: 26.2±6.3 mmHg
Glaucomatous beagles [2]; 12 μl of 0.005% BID via spray ejector device, day 9, hour 4
  minimum IOP: 16.2±1.5 mmHg
Glaucomatous beagles [2]; 12 μl of 0.005% BID via spray ejector device, day 10
  maximum IOP: 27.5±3.5 mmHg
Glaucomatous beagles [2]; 12 μl of 0.005% BID via spray ejector device, day 10, hour 4
  minimum IOP: 14.0±1.3 mmHg
Glaucomatous beagles [2]; 12 μl of 0.005% BID via spray ejector device, day 11
  maximum IOP: 26.5±2.8 mmHg
Glaucomatous beagles [2]; 12 μl of 0.005% BID via spray ejector device, day 11, hour 7
  minimum IOP: 14.7±0.9 mmHg
Glaucomatous beagles [2]; 30 μl of 0.005% once daily via spray ejector device, 2 dogs
  effectiveness at lowering/controlling IOP vs traditional eyedropper therapy: as effective at lowering IOP and constricting the pupil as the traditional eyedropper therapy; also recorded: as effective in controlling IOP as traditional eyedropper therapy
Glaucomatous beagles [2]; 30 μl of 0.005% via spray ejector device, pilot study
  duration of action vs eyedropper: trend toward increased duration of action
Glaucomatous beagles [2]; any point in the study (p=0.823)
  IOP: spray ejector device 6.0 μl at 0.025% vs 0.005% eyedropper: no significant differences; also recorded: statistically equivalent
Glaucomatous beagles [2]; first day of the study
  IOP decrease: approximately 45.4 mmHg
Glaucomatous beagles [2]; one drop of 0.005% by eyedropper, over the 5 days of the study
  maximum decrease in IOP: 27.5 mmHg
Glaucomatous beagles [2]; subsequent days
  IOP decrease: ~24.7 mmHg
Glaucomatous beagles [3]; 0.005%, either treatment (spray ejector device BID, eyedropper)
  ocular irritation, injury, or discomfort: no significant reports of ocular irritation, injury, or discomfort
Glaucomatous beagles [3]; 0.005%, ejector device 12 μl and eyedropper
  excessive eye irritation or other eye issues: no reports of excessive eye irritation or other eye issues
Glaucomatous beagles [3]; 6.0 μl at 0.025% spray ejector device and 0.005% eyedropper
  irritation: Normal irritation caused by prostaglandin analogues was present
Glaucomatous beagles [3]; 9 μl of 0.005% via spray ejector device
  irritation vs eyedropper-treated eyes: less than that observed in the eyedropper-treated eyes
Glaucomatous beagles [3]; [5]
  irritation to the eye with the lower dosage: less irritation to the eye
Glaucomatous beagles [3]; five times (5×) concentration (0.025%) via spray ejector device
  irritation vs eyedropper administration: no more irritation than that occurring following eyedropper administration
Glaucomatous beagles [3]; traditional treatment eyes (eyedropper), related to prostaglandin use
  conjunctival irritation: Some conjunctival irritation was noted
Glaucomatous beagles [4]; [6]
  IOP in the treated eye: 11 mmHg
Glaucomatous beagles [4]; 1.5 μl of 0.005% via Whisper MDD
  effectiveness at lowering IOP and constricting the pupil vs traditional therapy: as effective at lowering IOP and constricting the pupil as traditional therapy
Glaucomatous beagles [4]; 3.0 μl of 0.005% once daily, spray ejector device, one dog
  time of maximum decrease in IOP: hour 7 on day 2
Glaucomatous beagles [4]; [7]
  decrease in IOP from the initial value: 12 mmHg
Glaucomatous beagles [4]; 9 μl of 0.005% once daily via spray ejector device vs one drop (26-30 μl), 5 days, 7-hour period
  effectiveness at lowering/controlling IOP vs traditional eyedropper therapy: as effective at lowering IOP and constricting the pupil as traditional therapy; also recorded: as effective at controlling IOP as traditional eyedropper therapy
Glaucomatous beagles [4]; 12 μl of 0.005% BID via spray ejector device, study day 7 (first day of instillation)
  maximum decrease in IOP: 28 mmHg
Glaucomatous beagles [4]; 12 μl of 0.005% BID via spray ejector device, study day 7, hour 7
  IOP level: 15.5±2.2 mmHg
Glaucomatous beagles [4]; one drop of 0.005% by eyedropper
  average daily change in IOP (maximum minus minimum): 14.6 mmHg
Glaucomatous beagles [4]; two 6 μl doses of 0.005% via ejector device vs one drop by eyedropper
  IOP: ejector device treatment vs traditional treatment: no significant differences; also recorded: statistically indistinguishable
